Source: ChEMBL document CHEMBL1154275, “Synthesis and biological evaluation of new heterocyclic quinolinones as anti-parasite and anti-HIV drug candidates” (Bioorg Med Chem Lett, 2009)

Tests used:
[1] = system: Human immunodeficiency virus 1; assay: Antiviral activity against HIV1 3B infected in human MT4 cells after 4 days by MTT assay; assay type: functional, organism-based
[2] = system: Human immunodeficiency virus 2; assay: Antiviral activity against HIV2 ROD infected in human MT4 cells after 4 days by MTT assay; assay type: functional, organism-based, ISOLATE ROD
[3] = (§1) Cytotoxicity against human MT4 cells after 4 days by MTT assay; assay type: cell-based; conditions: MT4 cells
Plasmodium falciparum = assay: Antimalarial activity against chloroquine, pyrimethamine, proguanil-resistant Plasmodium falciparum infected in human erythrocytes after 48 hrs by flow cytometry; assay type: functional, organism-based
THP-1 = assay: Cytotoxicity against human THP1 cells after 72 hrs by propidium iodide staining-based flow cytometry; assay type: cell-based
Leishmania donovani [4] = assay: Antileishmanial activity against Leishmania donovani MHOM/IN/78/80/DD8 promastigote by alamar blue method; assay type: functional, organism-based
Leishmania donovani [5] = assay: Antileishmanial activity against Leishmania donovani MHOM/IN/78/80/DD8 amastigote by alamar blue method; assay type: functional, organism-based
Trichomonas vaginalis = assay: Antitrichomonal activity against Trichomonas vaginalis TVR79 after 48 hrs by optical microscopy; assay type: functional, organism-based
[6] = Selectivity index, ratio of IC50 for human THP1 cells to IC50 for Plasmodium falciparum; assay type: toxicity, cell-based, THP-1
MT4 = assay: as §1; assay type: cell-based; conditions: mt4, 96 h
[7] = Human immunodeficiency virus 1, 3B, MT4, 96 h, read-out: EC50
[8] = Human immunodeficiency virus 2, ISOLATE ROD, MT4, 96 h, read-out: EC50
[9] = Plasmodium falciparum, 48 h, read-out: IC50
[10] = Homo sapiens, THP-1, 72 h, read-out: IC50
[11] = Leishmania donovani, MHOM/IN/78/80/DD8, read-out: IC50
[12] = Trichomonas vaginalis, TVR79, 48 h, read-out: IC50

Row | Structure (SMILES) | EC50 [1, 7] [µM] | EC50 [2, 8] [µM] | CC50 at 96 h [3] [µM] | IC50 (Plasmodium falciparum; [9]) [µM] | IC50 (THP-1; [10]) [µM] | IC50 (Leishmania donovani [4]; [11]) [µM] | IC50 (Leishmania donovani [5]; [11]) [µM] | IC50 (Trichomonas vaginalis; [12]) [µM] | selectivity index ([6]; human, THP-1 cells) | EC50 ([1]; mt4) | EC50 ([2]; mt4) | CC50 (MT4) | IC50 (Plasmodium falciparum) | IC50 (THP-1; thp-1) | IC50 (Leishmania donovani [4]) | IC50 (Leishmania donovani [5]) | IC50 (Trichomonas vaginalis) | selectivity index ([6]; thp-1)
1 | CC1(C)OC(=O)C(=CNc2ccc([N+](=O)[O-])cc2)C(=O)O1 | > 21.2 | > 21.2 | > 21.2 | 40 | > 250 | > 100 | > 100 | > 100 | > 6.2 |  |  |  |  |  |  |  |  | 
2 | CC1(C)OC(=O)C(=CNc2ccc3ncsc3c2)C(=O)O1 | > 39.1 | > 39.1 | > 39.1 | 60 | > 500 | > 200 | 40 | > 200 | > 8.3 |  |  |  |  |  |  |  |  | 
3 | O=c1cc[nH]c2ccc([N+](=O)[O-])cc12 | > 356 | > 356 | > 356 | 52 | 130 | > 200 | > 200 | > 200 | 2.5 |  |  |  |  |  |  |  |  | 
4 | O=c1cc[nH]c2ccc3ncsc3c12 |  |  |  |  |  |  |  |  |  | ND(Insoluble) | ND(Insoluble) | ND(Insoluble) | ND(Insoluble) | ND(Insoluble) | ND(Insoluble) | ND(Insoluble) | ND(Insoluble) | ND(Insoluble)
5 | CC1(C)OC(=O)C(=CNc2cccc(-c3nc4ccccc4s3)c2)C(=O)O1 | > 190 | > 190 | > 190 | 30 | 115 | > 200 | > 200 | > 200 | 4 |  |  |  |  |  |  |  |  | 
6 | CCOC(=O)C(=CNc1ccc([N+](=O)[O-])cc1)C(=O)OCC | ≥ 198 | ≥ 121 | ≥ 250 | > 250 | > 125 | > 250 | > 100 | > 125 |  |  |  |  |  |  |  |  |  | Not Active
7 | CC1(C)OC(=O)C(=CNc2ccc3[nH]c(=O)[nH]c3c2)C(=O)O1 | > 412 | > 412 | > 412 | > 500 | > 500 | > 200 | > 200 | > 200 |  |  |  |  |  |  |  |  |  | Not Active
8 | O=c1cc[nH]c2c([N+](=O)[O-])cccc12 | > 71.6 | > 71.6 | > 71.6 | > 500 | > 500 | > 200 | > 200 | > 200 |  |  |  |  |  |  |  |  |  | Not Active
9 | O=c1cc[nH]c2cc3c(cc12)OCCO3 | > 356 | > 356 | > 356 | 50 | 115 | > 200 | > 200 | > 200 | 2.3 |  |  |  |  |  |  |  |  | 
10 | Cc1nc2ccc3[nH]ccc(=O)c3c2s1 | > 405 | > 405 | > 405 |  | > 500 | > 200 | > 200 | > 200 |  |  |  |  |  |  |  |  |  | 
11 | O=c1cc[nH]c2ccc3nn[nH]c3c12 |  |  |  |  |  |  |  |  |  | ND(Insoluble) | ND(Insoluble) | ND(Insoluble) | ND(Insoluble) | ND(Insoluble) | ND(Insoluble) | ND(Insoluble) | ND(Insoluble) | ND(Insoluble)
12 | O=c1cc[nH]c2ccc3[nH]ncc3c12 |  |  |  |  |  |  |  |  |  | ND(Insoluble) | ND(Insoluble) | ND(Insoluble) | ND(Insoluble) | ND(Insoluble) | ND(Insoluble) | ND(Insoluble) | ND(Insoluble) | ND(Insoluble)
13 | CN(C)c1nc2cc3[nH]ccc(=O)c3cc2o1 | > 324 | > 324 | > 324 | 40 | > 125 | > 250 | > 100 | > 125 | > 3.1 |  |  |  |  |  |  |  |  | 
14 | O=c1cc[nH]c2c(-c3nc4ccccc4s3)cccc12 | > 8.6 | ≥ 1.4 | 8.6 | > 500 | > 500 | > 200 | > 200 | > 200 |  |  |  |  |  |  |  |  |  | Not Active
15 | Nc1ccc2[nH]ccc(=O)c2c1 | > 631 | ≥ 501 | ≥ 631 | 90 | > 500 | > 200 | > 200 | > 200 | > 5.5 |  |  |  |  |  |  |  |  | 
16 | Cc1nc2ccc3c(c(=O)ccn3C)c2s1 | > 341 | > 341 | > 341 | > 250 | 115 | > 100 | > 100 | > 100 |  |  |  |  |  |  |  |  |  | Not Active
17 | CC1(C)OC(=O)C(=CNc2cccc([N+](=O)[O-])c2)C(=O)O1 | > 251 | > 251 | > 251 | 60 | > 250 | > 100 | > 100 | > 100 | > 4.1 |  |  |  |  |  |  |  |  | 
18 | CC1(C)OC(=O)C(=CNc2ccccc2[N+](=O)[O-])C(=O)O1 | > 411 | ≥ 260 | ≥ 411 | > 500 | > 500 | > 200 | > 200 | > 200 |  |  |  |  |  |  |  |  |  | Not Active
19 | CC1(C)OC(=O)C(=CNc2ccc3c(c2)OCCO3)C(=O)O1 | > 428 | > 428 | > 428 | > 500 | > 500 | > 200 | > 200 | > 200 |  |  |  |  |  |  |  |  |  | Not Active
20 | Cc1nc2ccc(NC=C3C(=O)OC(C)(C)OC3=O)cc2s1 | > 317 | > 317 | > 317 | 60 | > 250 | > 250 | > 200 | > 100 | > 4.1 |  |  |  |  |  |  |  |  | 
21 | CC1(C)OC(=O)C(=CNc2ccc3[nH]nnc3c2)C(=O)O1 | > 68.1 | > 68.1 | > 68.1 | > 500 | > 500 | > 200 | > 200 | > 200 |  |  |  |  |  |  |  |  |  | Not Active
22 | CC1(C)OC(=O)C(=CNc2ccccc2-c2nc3ccccc3s2)C(=O)O1 | > 41.6 | > 41.6 | 41.6 | > 250 | > 250 | > 250 | > 100 | > 250 |  |  |  |  |  |  |  |  |  | Not Active
23 | CC1(C)OC(=O)C(=CNc2ccc3c(c2)OCO3)C(=O)O1 | ≥ 118 | > 430 | > 430 | 10 | 250 | > 100 | 20 | > 100 | 25 |  |  |  |  |  |  |  |  | 
24 | CC1(C)OC(=O)C(CNc2ccc3c(c2)CCC3)C(=O)O1 | > 292 | > 292 | > 292 | > 500 | > 500 | > 200 | > 200 | > 200 |  |  |  |  |  |  |  |  |  | Not Active
25 | CC1(C)OC(=O)C(=CNc2ccc3cn[nH]c3c2)C(=O)O1 | > 436 | > 436 | > 436 | > 250 | > 250 | > 100 | > 100 | > 100 |  |  |  |  |  |  |  |  |  | Not Active
26 | CN(C)c1nc2ccc(NC=C3C(=O)OC(C)(C)OC3=O)cc2o1 | > 378 | > 378 | > 378 | 40 | > 250 | > 100 | > 100 | > 100 | > 6.25 |  |  |  |  |  |  |  |  | 
27 | C[C@@H]1[C@H](O)[C@@H](C)/C=C/C=C/C=C/C=C/C=C/C=C/C=C/[C@H](O[C@@H]2O[C@H](C)[C@@H](O)[C@H](N)[C@@H]2O)C[C@@H]2O[C@](O)(C[C@@H](O)C[C@@H](O)[C@H](O)CC[C@@H](O)C[C@@H](O)CC(=O)O[C@H]1C)C[C@H](O)[C@H]2C(=O)O [AMPHOTERICIN B] |  |  |  |  |  |  | 0.1 |  |  |  |  |  |  |  |  |  |  | 
28 | C[C@H]1c2cccc(O)c2C(=O)C2=C(O)[C@]3(O)C(=O)C(C(N)=O)=C(O)[C@@H](N(C)C)[C@@H]3[C@@H](O)[C@@H]21 [DOXYCYCLINE] |  |  |  |  | 20 |  |  |  | 3.1 |  |  |  |  |  |  |  |  | 
29 | Cc1ncc([N+](=O)[O-])n1CCO [METRONIDAZOLE] |  |  |  |  | > 500 |  |  | 2.7 |  |  |  |  |  |  |  |  |  | 
